From patent US8741934B2, “Inhibitors of ion channels” (Pfizer Limited, priority 2007, dated 2014)
pIC50: −log10 of the molar value.

Target: T1, hSCN3A sodium channels (Homo sapiens, UniProt Q9NY46)
T1 construct: expressed in transfected cells
Assay: hSCN3A electrophysiology, Ionworks Quattro automated platform (Table C)
Format: cell-based
Conditions: for inhibition at 3 µM: 3 μM compound, read-out: SCN3A % INHIB HTS IWQ 3 μM; for inhibition at 10 µM: 10 μM compound, read-out: SCN3A % INHIB HTS IWQ 10 μM; for SCN3A INHIB INACT DRC EP IWQ EMAX: Emax of dose-response curve, inactivated state
Experimental: Human Embryonic Kidney (HEK) cells were transfected with an hSCN3A construct using lipofectamine reagent (Invitrogen), using standard techniques. […] Clones were screened for expression using the whole-cell voltage-clamp technique.
HEK cells stably transfected with hSCN3A were maintained in DMEM medium supplemented with 10% heat-inactivated fetal bovine serum and 400 μg/ml G418 sulfate in an incubator at 37° C. with a humidified atmosphere of 10% CO2. […] For electrophysiological studies, cells were removed from the culture flask by brief trypsinization and replated at low density onto glass cover slips. Cells were typically used for electrophysiological experiments within 24 to 72 h after plating.
Electrophysiological assays were also conducted using the Ionworks Quattro automated electrophysiological platform (Molecular Devices Corp) (Table C). Intracellular and extracellular solutions were as described above with the following changes, 100 μg/ml amphotericin was added to the intracellular solution to perforate the membrane and allow electrical access to the cells. hSCN3A cells were grown and harvested as for PatchXpress and cells were resuspended in extracellular solution at a concentration of 3-4×10^6 cells/ml. The onboard liquid handling facility of the Ionworks Quattro was used for dispensing cells and application of test compounds. A voltage protocol was then applied that comprised of a voltage step to fully inactivate the sodium channels, followed by a brief hyperpolarized recovery period to allow partial recovery from inactivation for unblocked sodium channels, followed by a test depolarized voltage step to assess magnitude of inhibition by test compound. Compound effect was determined based on current amplitude difference between the pre-compound addition and post-compound addition scans.

T1 sequence (Q9NY46 whole entry): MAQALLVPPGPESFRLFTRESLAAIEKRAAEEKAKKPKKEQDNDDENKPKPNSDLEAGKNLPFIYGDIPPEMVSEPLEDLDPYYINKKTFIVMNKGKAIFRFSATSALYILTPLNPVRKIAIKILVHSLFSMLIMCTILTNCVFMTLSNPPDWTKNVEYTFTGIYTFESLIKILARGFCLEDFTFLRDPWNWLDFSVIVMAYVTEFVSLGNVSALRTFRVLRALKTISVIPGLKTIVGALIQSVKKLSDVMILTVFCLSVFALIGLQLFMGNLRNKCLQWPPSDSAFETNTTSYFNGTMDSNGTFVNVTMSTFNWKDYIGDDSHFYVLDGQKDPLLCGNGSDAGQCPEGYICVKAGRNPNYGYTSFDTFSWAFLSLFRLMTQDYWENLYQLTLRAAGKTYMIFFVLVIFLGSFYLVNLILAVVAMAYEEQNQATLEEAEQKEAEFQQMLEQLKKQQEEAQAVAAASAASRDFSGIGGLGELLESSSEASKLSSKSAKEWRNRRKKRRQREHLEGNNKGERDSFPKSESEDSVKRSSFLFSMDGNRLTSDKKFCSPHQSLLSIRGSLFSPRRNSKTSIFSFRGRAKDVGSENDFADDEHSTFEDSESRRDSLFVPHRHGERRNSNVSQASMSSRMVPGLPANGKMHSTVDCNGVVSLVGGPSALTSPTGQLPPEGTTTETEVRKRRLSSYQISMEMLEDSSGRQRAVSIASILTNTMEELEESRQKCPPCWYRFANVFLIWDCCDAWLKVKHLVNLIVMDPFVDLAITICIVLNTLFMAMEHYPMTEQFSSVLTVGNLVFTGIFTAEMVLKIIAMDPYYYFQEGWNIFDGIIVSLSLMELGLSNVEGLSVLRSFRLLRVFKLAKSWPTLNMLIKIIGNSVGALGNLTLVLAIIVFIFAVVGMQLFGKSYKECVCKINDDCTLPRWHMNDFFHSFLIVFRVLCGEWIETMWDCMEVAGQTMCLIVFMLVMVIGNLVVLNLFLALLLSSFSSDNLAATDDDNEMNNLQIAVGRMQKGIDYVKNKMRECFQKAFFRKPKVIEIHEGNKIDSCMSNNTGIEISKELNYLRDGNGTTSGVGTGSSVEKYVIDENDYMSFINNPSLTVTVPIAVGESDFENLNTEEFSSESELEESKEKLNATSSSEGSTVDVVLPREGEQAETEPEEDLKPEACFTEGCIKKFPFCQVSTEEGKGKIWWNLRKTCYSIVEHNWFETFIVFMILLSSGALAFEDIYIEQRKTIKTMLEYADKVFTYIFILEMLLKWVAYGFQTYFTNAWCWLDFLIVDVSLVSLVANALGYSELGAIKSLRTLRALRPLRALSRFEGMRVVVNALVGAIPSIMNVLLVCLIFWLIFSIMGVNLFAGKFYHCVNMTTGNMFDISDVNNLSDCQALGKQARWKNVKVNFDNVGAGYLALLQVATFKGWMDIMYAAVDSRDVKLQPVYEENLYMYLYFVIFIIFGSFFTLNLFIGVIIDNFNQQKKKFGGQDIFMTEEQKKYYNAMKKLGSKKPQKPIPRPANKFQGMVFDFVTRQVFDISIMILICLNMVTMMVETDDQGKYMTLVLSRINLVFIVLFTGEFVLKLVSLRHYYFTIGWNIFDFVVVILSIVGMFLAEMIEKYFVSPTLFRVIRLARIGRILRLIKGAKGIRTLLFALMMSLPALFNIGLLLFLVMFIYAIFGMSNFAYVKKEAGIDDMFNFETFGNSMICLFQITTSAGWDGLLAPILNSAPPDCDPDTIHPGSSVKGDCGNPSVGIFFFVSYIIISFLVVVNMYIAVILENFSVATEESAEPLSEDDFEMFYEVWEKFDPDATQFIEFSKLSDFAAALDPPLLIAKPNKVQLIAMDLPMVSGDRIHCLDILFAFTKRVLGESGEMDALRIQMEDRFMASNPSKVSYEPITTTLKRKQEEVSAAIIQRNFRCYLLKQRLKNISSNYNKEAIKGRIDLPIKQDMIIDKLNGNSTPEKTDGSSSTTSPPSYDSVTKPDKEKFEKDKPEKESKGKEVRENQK

SMILES | inhibition at 3 µM | inhibition at 10 µM | SCN3A INHIB INACT DRC EP IWQ EMAX | pIC50 (read-out: SCN3A IWQ IC-50)
CC(C)(NC(=O)c1ccc(S(=O)(=O)Nc2nccs2)cc1)c1cccc(Cl)c1 [Example 127, N-[1-(3-chlorophenyl)-1-methylethyl]-4-[(1,3-thiazol-2-ylamino)sulfonyl]benzamide] | 28.9% | 28.7% | – | –
Cc1nccc(C2CCCN2C(=O)c2ccc(S(=O)(=O)Nc3nccs3)cc2)n1 (centres unmarked) [Example 212, 4-{[2-(2-Methylpyrimidin-4-yl)pyrrolidin-1-yl]carbonyl}-N-1,3-thiazol-2-yl-benzenesulfonamide] | 14.7% | -8.45% | – | –
Cc1ccnc(NC(=O)c2ccc(S(=O)(=O)Nc3nccs3)cc2)c1 [Example 181, N-(4-methylpyridin-2-yl)-4-[(1,3-thiazol-2-ylamino)sulfonyl]benzamide] | -12.2% | 11.2% | – | –
O=C(NCCc1ccccc1F)c1ccc(S(=O)(=O)Nc2nccs2)cc1 [Example 77, N-[2-(2-fluorophenyl)ethyl]-4-[(1,3-thiazol-2-ylamino)sulfonyl]benzamide] | 16.6% | 27.9% | – | –
O=C(NCc1cc(C(F)(F)F)ccc1F)c1ccc(S(=O)(=O)Nc2nccs2)cc1 [Example 76, N-[2-fluoro-5-(trifluoromethyl)benzyl]-4-[(1,3-thiazol-2-ylamino)sulfonyl]benzamide] | 35.8% | 52.1% | – | –
CC(Cc1ccc(C(F)(F)F)cc1)NC(=O)c1ccc(S(=O)(=O)Nc2nccs2)cc1 (centres unmarked) [Example 130, N-{1-methyl-2-[4-(trifluoromethyl)phenyl]ethyl}-4-[(1,3-thiazol-2-ylamino)sulfonyl]benzamide] | 23.1% | 16.5% | – | –
COc1ccc(C2(NC(=O)c3ccc(S(=O)(=O)Nc4nccs4)cc3)CC2)cc1 [Example 160, N-[1-(4-methoxyphenyl)cyclopropyl]-4-[(1,3-thiazol-2-ylamino)sulfonyl]benzamide] | 15.6% | 14.8% | – | –
O=C(NCc1cc(F)ccc1C(F)(F)F)c1ccc(S(=O)(=O)Nc2nccs2)cc1 [Example 81, N-[5-fluoro-2-(trifluoromethyl)benzyl]-4-[(1,3-thiazol-2-ylamino)sulfonyl]benzamide] | 34.7% | 65.7% | – | –
CCC(NC(=O)c1ccc(S(=O)(=O)Nc2nccs2)cc1)c1ccc(F)cc1 (centres unmarked) [Example 142, N-[1-(4-fluorophenyl)propyl]-4-[(1,3-thiazol-2-ylamino)sulfonyl]benzamide] | 30.4% | 31.5% | – | –
Cc1cnc(NC(=O)c2ccc(S(=O)(=O)Nc3nccs3)cc2)c(C)c1 [Example 184, N-(3,5-dimethylpyridin-2-yl)-4-[(1,3-thiazol-2-ylamino)sulfonyl]benzamide] | 29% | 20.8% | – | –
COc1cccc(C2CCCN2C(=O)c2ccc(S(=O)(=O)Nc3nccs3)cc2)c1 (centres unmarked) [Example 273, 4-{[2-(3-Methoxyphenyl)pyrrolidin-1-yl]carbonyl}-N-1,3-thiazol-2-yl-benzenesulfonamide] | 4.82% | 2.72% | – | –
Cc1ccnc(CC2CCCN2C(=O)c2ccc(S(=O)(=O)Nc3nccs3)cc2)c1 (centres unmarked) [Example 248, 4-({2-[(4-Methylpyridin-2-yl)methyl]pyrrolidin-1-yl}carbonyl)-N-1,3-thiazol-2-yl-benzenesulfonamide] | 20.1% | 14.7% | – | –
O=C(NCc1cc(F)ccc1F)c1ccc(S(=O)(=O)Nc2nccs2)cc1 [Example 87, N-(2,5-difluorobenzyl)-4-[(1,3-thiazol-2-ylamino)sulfonyl]benzamide] | 36.9% | 46.2% | – | –
O=C(c1ccc(S(=O)(=O)Nc2nccs2)cc1)N(Cc1ccccc1)[C@@H]1CCCC[C@H]1O [Example 213, N-benzyl-N-[(1R,2R)-2-hydroxycyclohexyl]-4-[(1,3-thiazol-2-yl-amino)sulfonyl]benzamide] | -0.67% | 1.51% | – | –
O=C(c1ccc(S(=O)(=O)Nc2nccs2)cc1)N1CCCC[C@@H]1c1ccccn1 [Example 261, 4-{[(2R)-2-pyridin-2-yl-piperidin-1-yl]carbonyl}-N-1,3-thiazol-2-yl-benzenesulfonamide] | 6.02% | 10.4% | – | –
O=C(c1ccc(S(=O)(=O)Nc2nccs2)cc1)N1CCOC(COc2cccc(Cl)c2)C1 (centres unmarked) [Example 234, 4-({2-[(3-Chlorophenoxy)methyl]morpholin-4-yl}carbonyl)-N-1,3-thiazol-2-yl-benzenesulfonamide] | 32% | 45.9% | 43.1 | –
Cc1noc(C(NC(=O)c2ccc(S(=O)(=O)Nc3nccs3)cc2)c2ccccc2)n1 (centres unmarked) [Example 183, N-[(3-methyl-1,2,4-oxadiazol-5-yl)(phenyl)methyl]-4-[(1,3-thiazol-2-ylamino)sulfonyl]benzamide] | 8.9% | 1.34% | – | –
O=C1[C@@H]2CC[C@@H]3[C@H]1C(c1ccccc1)N(C(=O)c1ccc(S(=O)(=O)Nc4nccs4)cc1)[C@H]3C2 (stereo partly drawn) [Example 192, 4-{[(3S,3aR,6R,7aS)-8-oxo-2-phenyloctahydro-1H-3,6-methanoindol-1-yl]carbonyl}-N-1,3-thiazol-2-yl-benzenesulfonamide] | 6.18% | 26% | – | –
Cc1cccc(CNC(=O)c2ccc(S(=O)(=O)Nc3nccs3)cc2)c1C [Example 82, N-(2,3-dimethylbenzyl)-4-[(1,3-thiazol-2-ylamino)sulfonyl]benzamide] | 29.7% | 63% | – | –
CC(NC(=O)c1ccc(S(=O)(=O)Nc2nccs2)cc1)c1ccc(F)cc1 (centres unmarked) [Example 103, N-[1-(4-fluorophenyl)ethyl]-4-[(1,3-thiazol-2-ylamino)sulfonyl]benzamide] | 21.2% | 46.8% | – | –
O=C(c1ccc(S(=O)(=O)Nc2nccs2)cc1)N1CCC(COCC2CC2)C1 (centres unmarked) [Example 269, 4-({3-[(Cyclopropylmethoxy)methyl]pyrrolidin-1-yl}carbonyl)-N-1,3-thiazol-2-yl-benzenesulfonamide] | 0.37% | 16.5% | – | –
Cc1cccc(CN2CCN(C(=O)c3ccc(S(=O)(=O)Nc4nccs4)cc3)CC2=O)c1 [Example 276, 4-{[4-(3-Methylbenzyl)-3-oxopiperazin-1-yl]carbonyl}-N-1,3-thiazol-2-yl-benzenesulfonamide] | 18.1% | 20.6% | – | –
O=C(NCC1(c2ccccc2)CCCC1)c1ccc(S(=O)(=O)Nc2nccs2)cc1 [Example 121, N-[(1-phenylcyclopentyl)methyl]-4-[(1,3-thiazol-2-ylamino)sulfonyl]benzamide] | 31.1% | 30.2% | – | –
O=C(c1ccc(S(=O)(=O)Nc2nccs2)cc1)N1CCSCC1c1ccc(F)cc1 (centres unmarked) [Example 223, 4-{[3-(4-Fluorophenyl)thiomorpholin-4-yl]carbonyl}-N-1,3-thiazol-2-yl-benzenesulfonamide] | 36.9% | 47.5% | 46.3 | 4.48
CC(C)(NC(=O)c1ccc(S(=O)(=O)Nc2nccs2)cc1)c1ccc(F)c(F)c1 [Example 146, N-[1-(3,4-difluorophenyl)-1-methylethyl]-4-[(1,3-thiazol-2-ylamino)sulfonyl]benzamide] | 24.3% | 27.9% | – | –
